Patent EP0241395A2, “Sweeteners derived from n-phenylguanidinoacetic and n-phenylethananamidinacetic acids, and compositions containing such sweeteners” (UNIVERSITE CLAUDE BERNARD - LYON 1, priority 1986, dated 1987)
Peptide text beside a SMILES is read from it.

Assays:
[1] = cited from earlier work
[2] = system: groupe de huit goûteurs expérimentés; experiment: Sweetening power judged by a panel of eight experienced tasters against a sucrose reference solution; assay type: in vivo; settings: weight basis; for Pouvoir édulcorant: Table II, relative to a 2 % sucrose solution; for pouvoir édulcorant, sur une base pondérale: approximate
Procedure, shortened: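 Panel of eight experienced tasters compared aqueous solutions of compound at varying concentrations with a sucrose reference at 2 %, sometimes 5 % and 10 %. Sweetening power is the weight ratio of sucrose to compound at equal sweetness intensity, as judged by a majority of tasters, and depends on the reference concentration.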

[3] = Stability in solution at pH 3 and 70 °C, remaining compound determined by HPLC; assay type: physicochemical; settings: pH 3, phosphate buffer 1mM; for remaining at 168 h: 1 mm phosphate buffer, after seven days, read-out: composé restant
Description: Les agents édulcorants de la présente invention sont généralement stables. La stabilité est déterminée à pH 3 en solution dans un tampon phosphate 1mM à 70 °C. La concentration du composé restant est déterminée par chromatographie liquide haute pression (HPLC). Par exemple, après six jours dans de telles conditions, on retrouve encore la moitié du composé de l'exemple 14 dans lequel X4 est CN, X3, X5, R1, R3 et R4 sont H, A est N, et R2 est (S) CH (CH3) C6H5. On améliore la stabilité lorsque l'on remplace l'atome d'hydrogène de R1 par CH3. Ainsi, après sept jours dans les mêmes conditions , on retrouve encore 88 % du composé de l'exemple 31 dans lequel X3 et X5 sont Cl, X4, R3 et R4 sont H, A est N, R1 est CH3, et R2 est CH2C6H5. De la même manière, toujours après sept jours et dans les mêmes conditions, on retrouve 86 % du composé de l'exemple 33 dans lequel X4 est CN, X3, X5, R3 et R4 sont H, A est N, R1 est CH3, et R2 est CH2C6H5.

[4] = by comparison with a 2 % sucrose solution
[5] = by comparison with a 5 % sucrose solution
[6] = by comparison with a 10 % sucrose solution

Molecule | Pouvoir sucrant (saccharose = 1) [1] | Pouvoir édulcorant [2] | pouvoir édulcorant, sur une base pondérale [2, 4] | further results
Glycyrrhizine | 50 | – | – | –
COC(=O)[C@H](Cc1ccccc1)NC(=O)[C@@H](N)CC(=O)O [Aspartame] (H-Asp-Phe-OMe) | 200 | – | – | –
OC[C@H]1O[C@H](O[C@]2(CCl)O[C@H](CCl)[C@@H](O)[C@@H]2O)[C@H](O)[C@@H](O)[C@H]1Cl [Trichlorogalactosucrose] | 2000 | – | – | –
O=C1NS(=O)(=O)c2ccccc21 [Saccharine] | 400 | – | – | –
C[C@H](NC(=Nc1ccc(C#N)cc1)NCC(=O)O)c1ccccc1 [Exemple 14, acide N-[N-(S)-α-méthylbenzylamino (4-cyanophénylimino)méthyl]-2-aminoéthanoïque] | – | 28000 | ~28 000 fois celui du saccharose | pouvoir édulcorant, sur une base pondérale [2, 5]: ~20 000 fois celui du saccharose; pouvoir édulcorant, sur une base pondérale [2, 6]: ~10 000 fois celui du saccharose; composé restant ([3]; after six days): la moitié
CN(Cc1ccccc1)C(=Nc1ccc(C#N)cc1)NCC(=O)O [Exemple 33, acide N-[N-méthyl-N-benzylamino(4-cyanophénylimino)méthyl]-2-aminoéthanoique] | – | 3000 | ~3 000 fois celui du saccharose | pouvoir édulcorant, sur une base pondérale [2, 5]: ~1800 times sucrose; pouvoir édulcorant, sur une base pondérale [2, 6]: ~1 200 fois celui du saccharose; remaining at 168 h [3]: 86%
C=C1C[C@@]23CC[C@H]4[C@@](C)(CCC[C@@]4(C)C(=O)O[C@@H]4O[C@H](CO)[C@@H](O)[C@H](O)[C@H]4O)[C@@H]2CC[C@]1(O[C@@H]1O[C@H](CO)[C@@H](O)[C@H](O)[C@H]1O[C@@H]1O[C@H](CO)[C@@H](O)[C@H](O)[C@H]1O)C3 [Stévioside] | 300 | – | – | –
Cyclamate de sodium | 30 | – | – | –
COc1ccc(CCC(=O)c2c(O)cc(O[C@@H]3O[C@H](CO)[C@@H](O)[C@H](O)[C@H]3O[C@@H]3O[C@@H](C)[C@H](O)[C@@H](O)[C@H]3O)cc2O)cc1O [Néohespéridine dihydrochalcone] | 1000 | – | – | –
OC[C@@H](O)[C@H](O)[C@@H](O)CO [Xylitol] | 1 | – | – | –
C[C@@H](NC(=O)[C@@H](N)CC(=O)O)C(=O)NC1C(C)(C)SC1(C)C [Alitame] | 2000 | – | – | –
CC1=CC(=O)NS(=O)(=O)O1 [Acésulfame-K] | 200 | – | – | –
O=C(O)CNC(=Nc1ccccc1)NCC1CCCCC1 [Exemple 55, acide N-[N-cyclohexylméthylamino (phénylimino)méthyl]-2-aminoéthanoïque] | – | 3 300 | ~3 300 fois celui du saccharose | pouvoir édulcorant, sur une base pondérale [2, 5]: ~2 500 fois celui du saccharose; pouvoir édulcorant, sur une base pondérale [2, 6]: ~2 000 fois celui du saccharose
CCC(C)(C)NC(=Nc1ccc(C#N)cc1)NCC(=O)O [Exemple 38, acide N-[N-(1,1-diméthylpropyl)amino(4-cyanophénylimino)méthyl]-2-aminoéthanoïque] | – | 300 | ~300 fois celui du saccharose | –
O=C(O)CNC(=Nc1cc(Cl)cc(Cl)c1)NCc1ccccc1 [Exemple 51, acide N-[N-benzylamino(3,5-dichlorophénylimino)méthyl]-2-aminoéthanoïque] | – | 80000 | ~80 000 fois celui du saccharose | –
C[C@H](N=C(NCC(=O)O)Nc1ccc(F)cc1)c1ccccc1 [Exemple 17, acide N-[N-(S)-α-méthylbenzylamine (4-fluorophénylimino)méthyl]-2-aminoéthanoïque] | – | 4000 | ~4 000 fois celui du saccharose | –

Molecule | Pouvoir sucrant (saccharose = 1) [1] | Pouvoir édulcorant [2] | pouvoir édulcorant, sur une base pondérale [2, 4] | further results
Cc1ccc(NC(=Nc2ccc(C#N)cc2)NCC(=O)O)cc1 [Exemple 66, acide N-[N-(4-méthylphényl)amino(4-cyanophénylimino)méthyl]--2-aminoéthanoïque] | – | 7000 | ~7 000 fois celui du saccharose | –
CN(Cc1ccccc1)C(=Nc1cc(Cl)cc(Cl)c1)NCC(=O)O [Exemple 31, acide N-[N-méthyl-N-benzylamino (3,5-dichlorophénylimino)méthyl]-2-aminoéthanoïque] | – | 20000 | ~20 000 fois celui du saccharose | remaining at 168 h [3]: 88%
N#Cc1ccc(N=C(NCC(=O)O)Nc2cccc3ccccc23)cc1 [Exemple 69, acide N-[N-1-naphtylamino(4-cyanophénylimino)méthyl)-2-aminoéthanoïque] | – | 60000 | ~60 000 fois celui du saccharose | –
N#Cc1ccc(N=C(NCC(=O)O)NCC23CC4CC(CC(C4)C2)C3)cc1 [Exemple 72, acide N-[N-(l-adamantylméthyl)amino(4-cyanophénylimino)méthyl]-2-aminoéthanoïque] | – | 23000 | ~23 000 fois celui du saccharose | –
O=C(O)CNC(=Nc1cccc2ccccc12)Nc1cc(Cl)cc(Cl)c1 [Exemple 68, acide N-[N-1-naphtylamino (3,5-dichlorophénylimino)méthyl]-2-aminoéthanoïque] | – | 30000 | ~30 000 fois celui du saccharose | –
C[C@H](NC(=Nc1cc(Cl)cc(Cl)c1)NCC(=O)O)C1CCCCC1 [Exemple 63, acide N-[N-(S)-l-cyclohexyléthylamino(3,5-dichlorophénylimino)méthyl]-2-aminoéthanoïque] | – | 70000 | ~70 000 fois celui du saccharose | –
C[C@H](NC(=Nc1cccc(Br)c1)NCC(=O)O)c1ccccc1 [Exemple 2, acide N-[N-(S)-a-méthylbenzylamino (3-bromophénylimino)méthyl]-2-aminoéthanoïque] | – | 25000 | ~25 000 fois celui du saccharose | –
CSc1cccc(N=C(NCC(=O)O)N[C@@H](C)c2ccccc2)c1 [Exemple 10, acide N-[N-(S)-a-méthylbenzylamino (3-méthylmercaptophénylimino)méthyl]-2-aminoéthanoïque] | – | 5 500 | ~5 500 fois celui du saccharose | –
COc1cc(NC(=N[C@@H](C)c2ccccc2)NCC(=O)O)cc(C(F)(F)F)c1 [Exemple 24, acide N-[N-(S)-α-méthylbenzylamino (3-trifluorométhyl-5-méthoxyphénylimino)méthyl]-2-amino-éthanoïque] | – | 7000 | ~7 000 fois celui du saccharose | –
O=C(O)CNC(=Nc1cc(Cl)cc(Cl)c1)NC1CCCCCCC1 [Exemple 46, acide N-[N-cyclooctylamino (3,5-dichlorophénylimino)méthyl]-2-aminoéthanoïque] | – | 60000 | ~60 000 fois celui du saccharose | –
O=C(O)CNC(=Nc1cc(Cl)cc(Cl)c1)Nc1cc(Cl)cc(Cl)c1 [Exemple 81, acide N-[N-3,5-dichlorophénylamino (3,5-dichlorophénylimino)méthyl]-2-aminoéthanoïque] | – | 1000 | ~1 000 fois celui du saccharose | –
N#Cc1ccc(N=C(NCC(=O)O)NN2CCOCC2)cc1 [Exemple 77, acide N-[N-morpholinoamino(4-cyano-phénylimino)méthyl]-2-aminoéthanoïque] | – | 950 | ~950 fois celui du saccharose | –
Cc1cc(N=C(NCC(=O)O)N[C@@H](C)c2ccccc2)ccc1C#N [Exemple 22, acide N-[N-(S)-a-méthylbenzylamino (4-cyano-3-méthylphénylimino)méthyl]-2-aminoéthanoïque] | – | 50000 | ~50 000 fois celui du saccharose | –
CCCCCCN=C(NCC(=O)O)Nc1ccc(C#N)cc1 [Exemple 36, acide N-[N-hexylamino(4-cyanophénylimino)méthyl]-2-aminoéthanoïque] | – | 6000 | ~6 000 fois celui du saccharose | pouvoir édulcorant, sur une base pondérale [2, 5]: ~4 300 fois celui du saccharose; pouvoir édulcorant, sur une base pondérale [2, 6]: ~1400 times sucrose
C[C@@H](NC(=Nc1ccc(C#N)cc1)NCC(=O)O)c1ccccc1 [Exemple 54, acide N-[N-(R)-a-méthylbenzylamino (4-cyanophénylimino)méthyl]-2-aminoéthanoïque] | – | 9000 | ~9 000 fois celui du saccharose | pouvoir édulcorant, sur une base pondérale [2, 5]: ~6600 times sucrose; pouvoir édulcorant, sur une base pondérale [2, 6]: ~2 500 fois celui du saccharose
